The target of test [1] is HDAC2 (Homo sapiens (Human), UniProt Q92769). The test is described as follows: biochemical HDAC assay (Reaction Biology Corp.), HDAC2. Particulars: fluorogenic peptide RHKK(Ac)AMC; 10-dose, 3-fold dilution from 10 μM. On the procedure: (§1) The inhibitory activities of compounds of present invention were determined using biochemical HDAC assays (Reaction Biology Corp. biochemical assay services). Compound with indicated doses was tested in the biochemical assays of HDAC 1, HDAC2, HDAC3, HDAC4, HDAC5, HDAC6, HDAC7, HDAC 8, HDAC9, HDAC10, and HDAC11 enzyme.
(§2) Compounds were tested in singlicate 10-dose IC50 mode with 3-fold serial dilution starting at 10 μM against 11 HDACs. HDAC reference compounds Trichostatin A (TSA) and TMP269 were tested in a 10-dose IC50 with 3-fold serial dilution starting at 10 μM.
(§3) Substrate for HDAC1,2,3,6,10: Fluorogenic peptide from p53 residues 379-382 (RHKK(Ac)AMC). Substrate for HDAC4,5,7,9, and 11: Fluorogenic HDAC Class2a Substrate (Trifluoroacetyl Lysine). Substrate for HDAC 8: Fluorogenic peptide from p53 residues 379-382 (RHK(Ac)K(Ac)AMC).
(§4) General Reaction Procedure: (Standard IC50 determination) • a. 2× enzyme was added to wells of reaction plate except to No Enzyme (No En) control wells. Add buffer in No En wells. • b. Compounds to be tested in 100% DMSO were added to the enzyme mixture by Acoustic technology (Echo550; nanoliter range). The mixture was spinned down and preincubated. • c. 2× Substrate Mixture (Fluorogenic HDAC Substrate and co-factor (500 μM of Nicotinamide adenine dinucleotide (NAD<+>) in all Sirt assay) were added to all reaction wells to initiate the reaction. The plates were spinned and shaken. • d. The plates were incubated for 1-2 hr. at 30° C. with seal. • e. Developer with Trichostatin A (or TMP269 or NAD<+>) was added to stop the reaction and to generate fluorescent color. • f. Fluorescence was read (excitatory, 360; emission, 460) using the EnVision Multilabel Plate Reader (Perkin Elmer) • g. Endpoint reading was taken for analysis after the development reaches plateau.
(§5) Data Analysis: The percentages of enzyme activity (relative to DMSO controls) and IC50 values were calculated using the GraphPad Prism 4 program based on a sigmoidal dose-response equation. The blank (DMSO) value was entered as 1.00E-12 of concentration for curve fitting.

Test [2] concerns the target HDAC10 (Homo sapiens (Human), UniProt Q969S8). The test is described as follows: biochemical HDAC assay (Reaction Biology Corp.), HDAC10. Particulars: fluorogenic peptide RHKK(Ac)AMC; 10-dose, 3-fold dilution from 10 μM. The procedure: as §1, §2, §3, §4, §5
In test [3] the target is HDAC 1 (Homo sapiens (Human), UniProt Q13547). The test is described as follows: biochemical HDAC assay (Reaction Biology Corp.), HDAC1. The conditions noted are these: fluorogenic peptide RHKK(Ac)AMC; 10-dose, 3-fold dilution from 10 μM. The procedure: The inhibitory activities of compounds of present invention were determined using biochemical HDAC assays (Reaction Biology Corp. biochemical assay services). Compound with indicated doses was tested in the biochemical assays of HDAC 1, HDAC2, HDAC3, HDAC4, HDAC5, HDAC6, HDAC7, HDAC 8, HDAC9, HDAC10, and HDAC11 enzyme. Compounds were tested in singlicate 10-dose IC50 mode with 3-fold serial dilution starting at 10 μM against 11 HDACs. HDAC reference compounds Trichostatin A (TSA) and TMP269 were tested in a 10-dose IC50 with 3-fold serial dilution starting at 10 μM. Substrate for HDAC1,2,3,6,10: Fluorogenic peptide from p53 residues 379-382 (RHKK(Ac)AMC). Substrate for HDAC4,5,7,9, and 11: Fluorogenic HDAC Class2a Substrate (Trifluoroacetyl Lysine). Substrate for HDAC 8: Fluorogenic peptide from p53 residues 379-382 (RHK(Ac)K(Ac)AMC). General Reaction Procedure: (Standard IC50 determination) • a. 2× enzyme was added to wells of reaction plate except to No Enzyme (No En) control wells. Add buffer in No En wells. • b. Compounds to be tested in 100% DMSO were added to the enzyme mixture by Acoustic technology (Echo550; nanoliter range). The mixture was spinned down and preincubated. • c. 2× Substrate Mixture (Fluorogenic HDAC Substrate and co-factor (500 μM of Nicotinamide adenine dinucleotide (NAD<+>) in all Sirt assay) were added to all reaction wells to initiate the reaction. The plates were spinned and shaken. • d. The plates were incubated for 1-2 hr. at 30° C. with seal. • e. Developer with Trichostatin A (or TMP269 or NAD<+>) was added to stop the reaction and to generate fluorescent color. • f. Fluorescence was read (excitatory, 360; emission, 460) using the EnVision Multilabel Plate Reader (Perkin Elmer) • g. Endpoint reading was taken for analysis after the development reaches plateau. Data Analysis: The percentages of enzyme activity (relative to DMSO controls) and IC50 values were calculated using the GraphPad Prism 4 program based on a sigmoidal dose-response equation. The blank (DMSO) value was entered as 1.00E-12 of concentration for curve fitting.

The target in test [4] is HDAC3 (Homo sapiens (Human), UniProt O15379). Nature of the test: biochemical HDAC assay (Reaction Biology Corp.), HDAC3. Particulars: fluorogenic peptide RHKK(Ac)AMC; 10-dose, 3-fold dilution from 10 μM. The procedure:
as §1, §2, §3, §4, §5

For test [5], the target named is HDAC8 (Homo sapiens (Human), UniProt Q9BY41). Nature of the test: biochemical HDAC assay (Reaction Biology Corp.), HDAC8. The conditions noted are these: fluorogenic peptide RHK(Ac)K(Ac)AMC; 10-dose, 3-fold dilution from 10 μM. On the procedure:
as §1, §2, §3, §4, §5

The target of test [6] is HDAC6 (Homo sapiens (Human), UniProt Q9UBN7). Nature of the test: biochemical HDAC assay (Reaction Biology Corp.), HDAC6. Particulars: fluorogenic peptide RHKK(Ac)AMC; 10-dose, 3-fold dilution from 10 μM. On the procedure:
as §1, §2, §3, §4, §5

Chain of HDAC 1 (Q13547 whole entry, the tested form may be a part): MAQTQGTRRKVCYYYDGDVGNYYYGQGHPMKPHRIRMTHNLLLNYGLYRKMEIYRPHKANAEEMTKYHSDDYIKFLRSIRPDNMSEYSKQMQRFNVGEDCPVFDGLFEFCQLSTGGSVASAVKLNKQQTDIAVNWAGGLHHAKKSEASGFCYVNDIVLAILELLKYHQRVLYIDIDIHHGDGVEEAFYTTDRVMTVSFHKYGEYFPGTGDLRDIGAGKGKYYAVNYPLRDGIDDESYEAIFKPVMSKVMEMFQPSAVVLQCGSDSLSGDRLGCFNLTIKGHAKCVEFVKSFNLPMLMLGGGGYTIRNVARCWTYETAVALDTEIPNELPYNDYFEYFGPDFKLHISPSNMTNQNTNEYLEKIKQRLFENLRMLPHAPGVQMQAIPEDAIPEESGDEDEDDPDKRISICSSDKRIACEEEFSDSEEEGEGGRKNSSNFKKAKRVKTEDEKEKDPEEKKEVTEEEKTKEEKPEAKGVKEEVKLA
Chain of HDAC10 (Q969S8 whole entry): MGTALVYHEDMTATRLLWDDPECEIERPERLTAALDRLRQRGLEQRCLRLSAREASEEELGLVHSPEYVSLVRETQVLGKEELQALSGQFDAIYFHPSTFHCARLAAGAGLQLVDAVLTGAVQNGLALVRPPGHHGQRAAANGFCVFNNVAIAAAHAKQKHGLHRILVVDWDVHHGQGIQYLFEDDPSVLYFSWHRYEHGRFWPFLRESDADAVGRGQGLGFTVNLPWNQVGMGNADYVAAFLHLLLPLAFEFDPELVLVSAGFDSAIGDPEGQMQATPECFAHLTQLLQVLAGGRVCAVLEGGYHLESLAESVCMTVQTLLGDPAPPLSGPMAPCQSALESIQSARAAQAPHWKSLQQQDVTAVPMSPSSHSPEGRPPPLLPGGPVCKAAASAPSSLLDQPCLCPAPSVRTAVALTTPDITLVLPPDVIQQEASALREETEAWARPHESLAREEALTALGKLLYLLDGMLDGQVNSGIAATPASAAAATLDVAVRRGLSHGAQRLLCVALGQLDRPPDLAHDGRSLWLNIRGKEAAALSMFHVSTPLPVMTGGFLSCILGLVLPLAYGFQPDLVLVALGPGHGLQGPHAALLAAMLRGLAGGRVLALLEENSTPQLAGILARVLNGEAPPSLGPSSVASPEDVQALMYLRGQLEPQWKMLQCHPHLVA
Chain of HDAC8 (Q9BY41 whole entry): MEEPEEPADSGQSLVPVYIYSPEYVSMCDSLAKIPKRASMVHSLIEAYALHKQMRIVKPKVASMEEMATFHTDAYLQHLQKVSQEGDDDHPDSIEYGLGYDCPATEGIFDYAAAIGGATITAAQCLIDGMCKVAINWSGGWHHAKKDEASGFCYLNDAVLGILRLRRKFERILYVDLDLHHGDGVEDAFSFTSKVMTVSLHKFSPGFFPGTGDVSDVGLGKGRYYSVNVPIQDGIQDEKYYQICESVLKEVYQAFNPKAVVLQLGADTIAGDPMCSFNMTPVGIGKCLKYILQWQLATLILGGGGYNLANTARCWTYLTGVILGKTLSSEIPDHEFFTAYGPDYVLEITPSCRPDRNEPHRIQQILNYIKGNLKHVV
Chain of HDAC6 (Q9UBN7 whole entry): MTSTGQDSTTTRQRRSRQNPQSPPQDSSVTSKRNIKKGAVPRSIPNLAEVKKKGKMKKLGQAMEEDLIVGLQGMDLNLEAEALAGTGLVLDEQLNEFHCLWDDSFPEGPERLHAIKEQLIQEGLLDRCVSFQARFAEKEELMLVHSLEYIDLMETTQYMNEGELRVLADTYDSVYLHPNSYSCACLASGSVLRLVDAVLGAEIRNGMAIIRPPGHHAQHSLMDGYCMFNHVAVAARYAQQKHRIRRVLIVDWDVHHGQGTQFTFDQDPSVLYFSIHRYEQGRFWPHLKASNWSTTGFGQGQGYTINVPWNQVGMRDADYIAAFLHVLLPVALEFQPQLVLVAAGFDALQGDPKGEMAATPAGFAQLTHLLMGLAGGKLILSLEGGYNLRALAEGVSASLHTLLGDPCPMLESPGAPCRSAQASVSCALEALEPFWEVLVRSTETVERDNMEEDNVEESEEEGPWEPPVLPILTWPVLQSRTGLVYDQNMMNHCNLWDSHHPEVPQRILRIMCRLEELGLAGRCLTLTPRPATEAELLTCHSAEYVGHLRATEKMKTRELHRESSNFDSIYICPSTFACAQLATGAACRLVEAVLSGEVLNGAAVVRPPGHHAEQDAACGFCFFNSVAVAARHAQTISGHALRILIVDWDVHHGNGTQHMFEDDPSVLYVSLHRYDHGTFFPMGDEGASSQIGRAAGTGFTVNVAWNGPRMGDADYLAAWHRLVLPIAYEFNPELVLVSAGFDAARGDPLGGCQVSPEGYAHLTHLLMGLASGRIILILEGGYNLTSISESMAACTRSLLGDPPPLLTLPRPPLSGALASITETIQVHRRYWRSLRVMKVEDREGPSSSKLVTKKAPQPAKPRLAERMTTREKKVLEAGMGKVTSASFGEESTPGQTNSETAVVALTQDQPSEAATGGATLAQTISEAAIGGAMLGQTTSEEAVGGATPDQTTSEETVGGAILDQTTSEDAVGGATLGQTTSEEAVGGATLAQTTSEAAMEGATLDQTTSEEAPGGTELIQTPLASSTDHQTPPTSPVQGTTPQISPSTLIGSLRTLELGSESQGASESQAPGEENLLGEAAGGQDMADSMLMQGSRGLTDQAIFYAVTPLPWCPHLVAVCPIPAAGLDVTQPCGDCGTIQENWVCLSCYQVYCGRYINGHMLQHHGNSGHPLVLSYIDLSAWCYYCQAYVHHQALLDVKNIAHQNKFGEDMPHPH
Chain of HDAC3 (O15379 whole entry): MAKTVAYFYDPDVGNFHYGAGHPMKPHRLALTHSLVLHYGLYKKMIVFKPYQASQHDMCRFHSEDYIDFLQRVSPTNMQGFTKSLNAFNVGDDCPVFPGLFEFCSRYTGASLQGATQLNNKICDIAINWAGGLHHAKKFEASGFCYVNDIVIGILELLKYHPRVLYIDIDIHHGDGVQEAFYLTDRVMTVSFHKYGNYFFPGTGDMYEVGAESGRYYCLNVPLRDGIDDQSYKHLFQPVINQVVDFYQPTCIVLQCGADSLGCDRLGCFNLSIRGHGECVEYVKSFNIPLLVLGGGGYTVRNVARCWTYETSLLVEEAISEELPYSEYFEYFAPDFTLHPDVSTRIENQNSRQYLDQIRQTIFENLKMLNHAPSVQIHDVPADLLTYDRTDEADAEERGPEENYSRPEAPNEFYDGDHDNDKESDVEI
Chain of HDAC3 (Q9Y618 395-489 partner): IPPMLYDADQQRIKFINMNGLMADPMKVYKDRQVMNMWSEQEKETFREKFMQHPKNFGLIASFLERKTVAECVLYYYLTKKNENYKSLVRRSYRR
Chain of HDAC2 (Q92769 whole entry): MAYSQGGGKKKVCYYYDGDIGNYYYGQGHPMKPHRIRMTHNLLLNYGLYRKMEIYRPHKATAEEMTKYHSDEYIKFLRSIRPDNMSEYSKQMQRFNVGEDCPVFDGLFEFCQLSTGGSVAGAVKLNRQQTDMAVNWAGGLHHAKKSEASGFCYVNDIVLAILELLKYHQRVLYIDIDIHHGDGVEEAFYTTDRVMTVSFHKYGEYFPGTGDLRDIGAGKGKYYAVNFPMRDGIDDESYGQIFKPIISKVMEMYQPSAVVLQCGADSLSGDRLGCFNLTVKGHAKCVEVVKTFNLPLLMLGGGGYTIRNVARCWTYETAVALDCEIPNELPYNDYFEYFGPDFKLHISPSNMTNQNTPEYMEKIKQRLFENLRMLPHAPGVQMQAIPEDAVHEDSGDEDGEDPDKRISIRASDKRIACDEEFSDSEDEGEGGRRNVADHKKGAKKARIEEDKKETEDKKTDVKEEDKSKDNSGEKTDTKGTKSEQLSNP

`CN1CCN(c2ccc(C(=O)Nc3nc(-c4ccccc4)ccc3N)cn2)CC1` [Example 1, N-(3-amino-6-phenylpyridin-2-yl)-6-(4-methylpiperazin-1-yl)nicotinamide]: in test [1], the half-maximal inhibitory concentration (IC50) – broadly, the concentration that inhibits the measured activity by half – is less than 200 nM.
`Nc1ccc(-c2ccccc2)nc1NC(=O)c1cccnc1` [Example 2, N-(3-amino-6-phenylpyridin-2-yl)nicotinamide]: the IC50 in test [1] is less than 200 nM.
In turn, `Nc1ccc(-c2ccc(F)cc2)nc1NC(=O)c1cccnc1` [Example 3, N-(3-amino-6-(4-fluorophenyl)pyridin-2-yl)nicotinamide] yielded an IC50 in test [1] of less than 200 nM.
As for `Nc1ccc(-c2ccccc2)nc1NC(=O)c1ccc(N2CCOCC2)nc1` [Example 4, N-(3-amino-6-phenylpyridin-2-yl)-6-morpholinonicotinamide], the IC50 in test [1] was less than 200 nM.
Take `Nc1ccc(-c2ccc(F)cc2)nc1NC(=O)c1ccc(N2CCOCC2)nc1` [Example 5, N-(3-amino-6-(4-fluorophenyl)pyridin-2-yl)-6-morpholinonicotinamide]: the IC50 was less than 200 nM in test [1]; 1000 to 50000 nM in test [2]; less than 200 nM in test [3]; not below 50000 nM in test [4]; not below 50000 nM in test [5].
On to `CN1CCN(c2ccc(C(=O)Nc3nc(-c4ccc(F)cc4)ccc3N)cn2)CC1` [Example 6, N-(3-amino-6-(4-fluorophenyl)pyridin-2-yl)-6-(4-methylpiperazin-1-yl)nicotinamide], for which the IC50 in test [6] was not below 50000 nM; in test [1], less than 200 nM; in test [2], 1000 to 50000 nM; in test [3], less than 200 nM; in test [4], not below 50000 nM; in test [5] it was not below 50000 nM.
In turn, `COc1ccc(-c2ccc(N)c(NC(=O)c3ccc(N4CCN(C)CC4)nc3)n2)cc1` [Example 7, N-(3-amino-6-(4-methoxyphenyl)pyridin-2-yl)-6-(4-methylpiperazin-1-yl)nicotinamide] yielded an IC50 in test [1] of 200 to 1000 nM.
The same measure, in the same setting: the same measure for `CN1CCN(c2ccc(C(=O)Nc3nc(-c4ccncc4)ccc3N)cn2)CC1` [Example 8, N-(5-amino-[2,4′-bipyridin]-6-yl)-6-(4-methylpiperazin-1-yl)nicotinamide]: 200 to 1000 nM; for `CN1CCN(c2ccc(C(=O)Nc3nc(-c4ccc(F)c(F)c4)ccc3N)cn2)CC1` [Example 9, N-(3-amino-6-(3,4-difluorophenyl)pyridin-2-yl)-6-(4-methylpiperazin-1-yl)nicotinamide]: 200 to 1000 nM; for `CN1CCN(c2ncc(C(=O)Nc3nc(-c4ccccc4)ccc3N)cn2)CC1` [Example 10, N-(3-amino-6-phenylpyridin-2-yl)-2-(4-methylpiperazin-1-yl)pyrimidine-5-carboxamide]: less than 200 nM.
Regarding `Nc1ccc(-c2ccc(F)cc2)nc1NC(=O)c1cnc(N2CCOCC2)nc1` [Example 14, N-(3-amino-6-(4-fluorophenyl)pyridin-2-yl)-2-morpholinopyrimidine-5-carboxamide], the IC50 in test [1] was less than 200 nM.
`CN1CCN(c2ncc(C(=O)Nc3nc(-c4ccc(F)cc4)ccc3N)cn2)CC1` [Example 15, N-(3-amino-6-(4-fluorophenyl)pyridin-2-yl)-2-(4-methylpiperazin-1-yl)pyrimidine-5-carboxamide]: in test [1], the IC50 was less than 200 nM.
Turning to `Nc1ccc(-c2ccccc2)nc1NC(=O)c1cnc(NC2CC2)nc1` [Example 16, N-(3-amino-6-phenylpyridin-2-yl)-2-(cyclopropylamino)pyrimidine-5-carboxamide], the IC50 in test [1] was less than 200 nM.
Take `Nc1ccc(-c2ccc(F)cc2)nc1NC(=O)c1cnc(NC2CC2)nc1` [Example 17, N-(3-amino-6-(4-fluorophenyl)pyridin-2-yl)-2-(cyclopropylamino)pyrimidine-5-carboxamide]: the half-maximal inhibitory concentration (IC50) was less than 200 nM in test [1], not below 50000 nM in test [2], 1000 to 50000 nM in test [3] and not below 50000 nM in test [4].
In turn, `Nc1ccc(-c2ccc(F)cc2)nc1NC(=O)c1ccc(-c2cccnc2)nc1` [Example 21, N-(3-amino-6-(4-fluorophenyl)pyridin-2-yl)-[2,3′-bipyridine]-5-carboxamide] gave an IC50 in test [1] of 200 to 1000 nM.
On the same count and under the same terms, the same measure for `N#Cc1cccc(-c2ccc(C(=O)Nc3nc(-c4ccc(F)cc4)ccc3N)cn2)c1` [Example 22, N-(3-amino-6-(4-fluorophenyl)pyridin-2-yl)-6-(3-cyanophenyl)nicotinamide]: 200 to 1000 nM.
As for `Nc1ccc(-c2ccc(F)cc2)nc1NC(=O)c1ccc(N2CCNCC2)nc1` [Example 25, N-(3-amino-6-(4-fluorophenyl)pyridin-2-yl)-6-(piperazin-1-yl)nicotinamide], the IC50 is 1000 to 50000 nM in test [6]; less than 200 nM in test [1]; 1000 to 50000 nM in test [2]; 200 to 1000 nM in test [3]; not below 50000 nM in test [4]; not below 50000 nM in test [5].
Turning to `Nc1ccc(-c2ccc(F)cc2)nc1NC(=O)c1ccc(N2CCC(N)CC2)nc1` [Example 27, N-(3-amino-6-(4-fluorophenyl)pyridin-2-yl)-6-(4-aminopiperidin-1-yl)nicotinamide], the IC50 in test [6] is 1000 to 50000 nM; in test [1], less than 200 nM; in test [2], 1000 to 50000 nM; in test [3], less than 200 nM; in test [4], not below 50000 nM.
Consider `CN1CCN(c2ccc(C(=O)Nc3nc(-c4cccs4)ccc3N)cn2)CC1` [Example 29, N-(3-amino-6-(thiophen-2-yl)pyridin-2-yl)-6-(4-methylpiperazin-1-yl)nicotinamide], for which the half-maximal inhibitory concentration (IC50) is 1000 to 50000 nM in test [6]; less than 200 nM in test [1]; 1000 to 50000 nM in test [2]; less than 200 nM in test [3]; 1000 to 50000 nM in test [4].
Turning to `CN1CCN(CCNc2ccc(C(=O)Nc3nc(-c4ccc(F)cc4)ccc3N)cn2)CC1` [Example 30, N-(3-amino-6-(4-fluorophenyl)pyridin-2-yl)-6-((2-(4-methylpiperazin-1-yl)ethyl)amino)nicotinamide], in test [1], the IC50 was less than 200 nM.
Consider “N-(3-amino-6-(4-fluorophenyl)pyridin-2-yl)-6-(4-methylpiperazin-1-yl)nicotinamide [Example 13]”, for which, in test [1], the IC50 was less than 200 nM.
